Results reported in patent US6284726A, “Inhibition of angiogenesis by peptide analogs of high molecular weight kininogen domain 5” (Temple University - Of The Commonwealth System of Higher …, priority 2000, dated 2001).

What was measured:
HUVEC cells = test: CyQUANT proliferation assay of bFGF-stimulated HUVEC; format: cell-based, human; settings: 10 ng/ml bFGF; for Proliferation % Inhibition: 48 hours
Description: Cell proliferation was determined by using CyQUANT cell proliferation assay kit from Molecular Probes (catalog #C-7026).
HUVEC cells (50,000/well) in a 96 well microtiter plate were stimulated with 10 ng/ml bFGF in serum-free, M199 growth medium with or without HK peptide for 48 hours at 37° C. in a CO2 incubator. Cells were washed with serum-free medium and frozen at -40° C. Frozen cells were thawed and lysed with a lysis buffer containing the CyQUANT GR dye. Fluorescence was measured using a Cytofluor II Fluorescence Multi-well plate reader with excitation 485 nm and emission with 530 nm.
The percent inhibition of proliferation at a specific peptide concentration was determined for some peptides. For other peptides, an IC50 was calculated from a curve plotting inhibitor concentration versus percent inhibition over a inhibition range of ten to ninety percent inhibition.

[1] = tested on: chorioallantoic membrane (CAM) of embryonated chicken eggs; test: In ovo chick chorioallantoic membrane (CAM) angiogenesis assay; format: in vivo; settings: for inhibition of bFGF-stimulated angiogenesis (blood vessel branch points): bFGF-saturated filter disc on CAM, peptide 0-25 μg in 25 μl saline, 0.27 μM, applied 24 hours later
From the text: New vessels, quantified by blood vessel branching, occurred in response to bFGF, VEGF, or a combination of both. Accordingly, ten day old embryonated chicken eggs were candled to illuminate blood vessels under the shell. An area with a minimum of small blood vessel was identified. The chorioallantoic membrane (CAM) was dropped away from the egg shell in this area by grinding a small hole in the mineralized shell and applying pressure to the underlying inner shell membrane. This caused an air pocket to shift from the wide end of the egg to the identified area and forced a circular region of the CAM approximately 2 cm in diameter to drop away from the shell. A window was cut in the egg shell. A cortisone acetate pre-treated filter disc 5 mm in diameter that was saturated in 1 μg/mi bFGF, a combination of bFGF and VEGF, or saline and was placed on the CAM. The window in the shell was sealed with adhesive tape and the egg was incubated for four days. Peptide GST-SEQ ID NO:10 (0-25 μg in 25 μI saline; 0.27 μM) was applied to the saturated filter 24 hours later and was applied to the stimulated CAM. The CAM was then harvested on the fourth day of stimulation. Data were evaluated in terms of average number of blood vessel branch points per treatment group as well as percent of control using a video camera attached to a personal computer. Under the conditions of the assay, peptide GST-SEQ ID NO:10 inhibited bFGF-stimulated angiogenesis by 97% and bFGF/VEGF-stimulated angiogenesis by 94%. There was no inhibition of bFGF-stimulated angiogenesis by GST alone (<10% inhibition).

HUVECs = test: Transwell migration of endothelial cells to vitronectin; format: cell-based, human; settings: 0.27 μM; four hours at 37° C.
Description: The lower side of 8 μm pore transwell inserts (Costar, Inc.) were coated with 2 μg/ml of vitronectin for one hour and blocked with 2% bovine serum albumin in phosphate buffered saline for one hour. The inserts were then placed into 24 well culture dishes containing 500 μl migration buffer in the lower chamber. Twenty-five thousand HUVECs in 50 μl of migration buffer were added to the upper chamber of duplicate inserts containing 50 μl of a solution of 50 μg/ml GST-SEQ ID NO. 10 peptide in migration buffer (Herpes buffered M199 medium containing 1% BSA, […], […] and 0.2 μM MnCl2) or migration buffer alone. Cells were allowed to migrate from the upper to the lower chamber for four hours at 37° C. Nonmigratory cells were removed from the upper surface by wiping the upper side with an absorbent tip. Cells which migrated to the lower side of the transwell insert were then fixed for 15 minutes with 3.7% paraformaldehyde in phosphate buffered saline and stained with a 2% crystal violet solution. After extensive water washing to remove excess crystal violet, the number of cells which had migrated were counted in three representative high power (200X) fields per inset.

“GST-Lys(420)-Ser(513) [GST-SEQ ID NO: 10]” was tested, and the IC50 (HUVEC cells; serum-free M199, 48 hours, read-out: IC50 (inhibition of endothelial cell proliferation)) was under 30 nM, the “Proliferation % Inhibition” value (HUVEC cells; peptide conc. 0.27 μM) was 100% and the “inhibition of bFGF-induced angiogenesis, as seen in FIG. 1D (in words)” value ([1]; bFGF plus GST fusion peptide, CAM) was “substantial inhibition”. The “inhibition of bFGF-stimulated angiogenesis (blood vessel branch points)” value ([1]; harvested on fourth day) was 97%, the “inhibition of bFGF/VEGF-stimulated angiogenesis (blood vessel branch points)” value ([1]; filter disc with combination of bFGF and VEGF on CAM, peptide 0.27 μM applied 24 hours later, harvested on fourth day) was 94% and the “inhibition of HUVEC migration to vitronectin” value (HUVECs) was 100%.
In the case of “GST-His(441)-Ser(626) [GST-SEQ ID NO: 8]”, the “Proliferation % Inhibition” value (HUVEC cells; peptide conc. 0.39 μM) is reported as 100%.
“GST-Lys(420)-Asp(474) [GST-SEQ ID NO: 5]” was tested, and the “Proliferation % Inhibition” value (HUVEC cells; peptide conc. 0.36 μM) was 94%.
For “GST-Glu(448)-Ser(626) [GST-SEQ ID NO: 12]”, the “Proliferation % Inhibition” value (HUVEC cells; peptide conc. 0.35 μM) was 65%.
For “glutathione-S-transferase [GST, reference compound]”, the “inhibition of bFGF-stimulated angiogenesis (blood vessel branch points)” value ([1]; harvested on fourth day) was under 10%.
